Source: ChEMBL document CHEMBL1201862, “PubChem BioAssay data set” (2004)
Calls of active or inactive are those of the source.

Columns and labels:
Protein Wnt-3a = Protein Wnt-3a (Mus musculus, UniProt P27467); test: antagonism of Wnt3a pathway luciferase reporter – Wnt-LIGHT cells, luminescence, selectivity assay for Gli-SUFU antagonist project, dose response (AID 651570); format: functional; conditions: read-out: IC50_Mean;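 also: Wnt-LIGHT reporter cells stimulated with conditioned medium from Wnt3a-producing cells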
Major prion protein = Major prion protein (Homo sapiens, UniProt P04156); format: functional, cell-based
[1] = biological target: T1, Corticotropin-releasing factor receptor 2/Corticotropin-releasing factor-binding protein (Homo sapiens, UniProt P24387+Q13324); test: Dose Response confirmation of uHTS hits for small molecule antagonists of the CRF-binding protein and CRF-R2 receptor complex.; format: functional; conditions: read-out: IC50_Mean
T1 sequence (Q13324 whole entry): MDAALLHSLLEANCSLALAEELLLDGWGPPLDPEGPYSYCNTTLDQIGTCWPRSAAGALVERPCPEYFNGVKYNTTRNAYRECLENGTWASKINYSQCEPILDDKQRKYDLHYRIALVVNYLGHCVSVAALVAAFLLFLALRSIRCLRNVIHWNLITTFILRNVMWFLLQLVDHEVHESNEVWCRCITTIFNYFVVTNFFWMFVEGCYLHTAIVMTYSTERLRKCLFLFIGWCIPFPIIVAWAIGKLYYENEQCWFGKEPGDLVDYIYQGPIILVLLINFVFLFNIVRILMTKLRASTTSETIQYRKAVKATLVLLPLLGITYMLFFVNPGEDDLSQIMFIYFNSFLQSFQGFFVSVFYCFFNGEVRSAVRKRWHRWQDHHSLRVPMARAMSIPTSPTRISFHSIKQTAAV
T1 sequence (P24387 whole entry): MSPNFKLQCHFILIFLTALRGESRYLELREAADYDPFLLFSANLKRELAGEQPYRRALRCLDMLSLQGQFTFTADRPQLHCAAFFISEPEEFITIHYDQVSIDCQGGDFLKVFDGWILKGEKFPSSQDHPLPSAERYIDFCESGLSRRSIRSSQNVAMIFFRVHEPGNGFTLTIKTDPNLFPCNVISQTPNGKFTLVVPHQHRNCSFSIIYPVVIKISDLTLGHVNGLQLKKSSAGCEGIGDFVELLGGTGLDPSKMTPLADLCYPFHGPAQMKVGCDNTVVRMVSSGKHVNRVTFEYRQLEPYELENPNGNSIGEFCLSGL

[2] = biological target: T1, Corticotropin-releasing factor receptor 2/Corticotropin-releasing factor-binding protein; test: activators of CRF receptor 2 with binding protein – uHTS hits, confirmation (AID 602473); format: functional; conditions: read-out: EC50_Mean
[3] = blockers of CRF-binding protein–CRF-R2 complex – cell-based, uHTS hits, 384-well, dose response (AID 651639); format: functional, Homo sapiens; conditions: read-out: IC50_Mean
Paired box protein Pax-8 = Paired box protein Pax-8 (Homo sapiens, UniProt Q06710); test: PAX8 transcriptional activity inhibition in RMG-I – RMG-I cells, luciferase, cherry-pick, dose response (AID 687027); format: functional, cell-based;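 also: luciferase reporter driven by Pax8 target thyroperoxidase promoter measured by SteadyGlo luminescence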
[4] = A2780 cell killing – plate reader, dry powder samples, cytotoxicity control, dose response (AID 743046); format: functional, cell-based
[5] = OVCAR8 cell viability loss – plate reader, dry powder samples, PAX8 project, dose response (AID 743197); format: functional, cell-based; conditions: OVCAR-8
[6] = growth inhibition of yeast DHODH-expressing 3D7 parasites – SYBR Green, dry powder samples, dose response (AID 1159570); format: functional, cell-based;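 also: parasite growth measured after 72 hours of compound exposure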
[7] = toxicity to human HepG2 hepatoma cells – cell-based, plate reader, dry powder samples, cytotoxicity control, dose response (AID 1159569); format: functional;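 also: inhibitor potency with signal falling toward the positive control level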
[8] = P. falciparum Dd2 growth inhibitors, dose response, SYBR Green, cherry-picked samples (AID 1159567); format: functional, cell-based
[9] = Dd2 malaria parasite growth inhibition potency – SYBR Green, dry powder samples, dose response (AID 1159566); format: functional, cell-based;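 also: potency for growth inhibition with lower SYBR green DNA signal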
[10] = growth inhibition of PfATP4-mutant resistant parasites – NITD609-resistant line, SYBR Green, dry powder, dose response (AID 1159571); format: functional, cell-based;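 also: parasites synchronized at ring stage by sorbitol before testing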
[11] = Luminescence-based cell-based high throughput dose response assay to identify activators of the DAF-12 from the parasite S. stercoralis (ssDAF-12).; format: functional
[12] = OVCAR-3 cell viability loss – plate reader, dry powder samples, PAX8 inhibitor project, dose response (AID 743044); format: functional, cell-based
[13] = biological target: NAD-dependent protein deacylase sirtuin-5, mitochondrial (Homo sapiens, UniProt Q9NXA8); test: sirtuin-5 deacylation blockers, concentration series – biochemical, fluorescence imaging, cherry-pick, set 5, dose response (AID 720591);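 also: desuccinylation of succinyl peptide AMC substrate read as fluorescence after trypsin release; potency of inhibitors that lower fluorescence and may act on trypsin instead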
Prothrombin = Prothrombin (Homo sapiens, UniProt P00734); test: Thrombin 1536 HTS Dose Response Confirmation. [Related pubchem assays: 1046 (Thrombin 1536 HTS; hits were confirmed in this assay)]; format: functional
[14] = biological target: Voltage-gated inwardly rectifying potassium channel KCNH2 (Homo sapiens, UniProt Q12809); test: concentration-dependent hERG rescue from blockers – cell-based, thallium flux, dose response (AID 2121); format: ADME

COC(=O)C1=C(c2cc3ccccc3o2)C[C@@H]2CC[C@H]1N2C(=O)N1CCC(C)CC1
IC50 (Protein Wnt-3a): 24.4 µM (inactive)

Cc1cc(NC(=O)CSc2nc(O)c(C#N)c(-c3ccccc3)n2)no1
IC50 (Major prion protein): 7.14 µM (active) | IC50 (cells): > 138 µM (inactive)

CC(C)c1cc(C(F)(F)F)nc(NNc2nc(C(C)C)cc(C(F)(F)F)n2)n1
IC50 [1]: 0.988 µM (active) | EC50 [2]: > 53 µM (inactive) | IC50 [3]: > 20 µM (inactive)

COc1ccc(NC(=O)Nc2ccc3c(c2)C(=O)N([C@H](C)CO)C[C@@H](C)[C@@H](CN(C)C(=O)Cc2ccccc2)OCCCC[C@H](C)O3)cc1
AC50 (Paired box protein Pax-8): 30.9 µM (active) | AC50 [4]: 16.6 µM (active) | AC50 [5]: > 70 µM (inactive)

COc1ccc(NC(=O)N2CCCCN3[C@H](CO)[C@H](c4ccc(C#CCC(C)C)cc4)[C@@H]3C2)cc1
AC50 [6]: 0.209 µM (active) | AC50 [7]: > 100 µM (inactive) | AC50 [8]: 0.636 µM (active) | AC50 [9]: 0.418 µM (active) | AC50 [10]: 0.264 µM (active)

CC(C)Sc1snnc1-c1ccccc1
IC50 [1]: < 0.368 µM (active) | EC50 [2]: > 53 µM (inactive) | IC50 [3]: > 20 µM (inactive)

Cc1cc2oc(C(=O)NCC(c3ccco3)N3CCCC3)c(C)c2cc1C (stereo not drawn)
IC50 [11]: > 67.6 µM (inactive)

CCN1C(=O)C2(C(C(=O)c3cc4ccccc4o3)=C(O)C(=O)N2CCCN2CCOCC2)c2ccccc21 (stereo not drawn)
IC50 (Major prion protein): 2.08 µM (active) | IC50 (cells): > 138 µM (inactive)

C[C@@H]1CN([C@@H](C)CO)C(=O)Cc2cc(NC(=O)NC3CCCCC3)ccc2O[C@H]1CN(C)Cc1ccc(-c2ccccc2)cc1
AC50 (Paired box protein Pax-8): 8.66 µM (active) | AC50 [4]: 31.8 µM (active) | AC50 [12]: 49.5 µM (active) | AC50 [5]: 34 µM (active)

C[C@@H]1CN([C@H](C)CO)C(=O)c2ccccc2-c2ccccc2CO[C@H]1CN(C)C(=O)Nc1cccc(Cl)c1Cl
AC50 [6]: 0.466 µM (active) | AC50 [7]: > 100 µM (inactive) | AC50 [8]: 1.01 µM (active) | AC50 [9]: 0.56 µM (active) | AC50 [10]: 1.65 µM (active)

Cc1cc(C2C(=O)c3ccccc3C2=O)c(C)c(C)c1C
AC50 [13]: > 30 µM (inactive)

CCOC(=O)c1c(C)[nH]c(C)c1C(=O)COC(=O)c1ccccc1O
AC50 [13]: 20 µM (active)

O=C(NCc1ccccc1)C1=C[C@@H](c2coc3ccccc3c2=O)C[C@@H](OCCCCO)O1
IC50 (Prothrombin): > 50 µM (not active)

O=C1N2CCSC2=NC1(NS(=O)(=O)c1ccccc1)C(F)(F)F (stereo not drawn)
EC50 [14]: 2.27 µM (active)
